Measurements as given in patent US10016373B2, “CB2 receptor ligands for the treatment of psychiatric disorders” (priority 2013, dated 2018).
Where two headings read alike, the source gives them in different places.

What was measured:
Format in all cases: in vivo
mice [1] = assay: Vocal tics, ultrasonic voice recording
Description: Mice were recorded at the age of 13 or 23-25 weeks with an ultrasonic voice recorder (Noldus). Mice were recorded at the age of 29 days with an ultrasonic voice recorder (AviSoft). Single mice were recorded in a cage for 10 min (according to sex and type of treatment). The number and duration of events at 20-40 kHz and at 50-70 kHz were analyzed. In some experiments, 24 h following M1 treatment, each mouse was recorded for 10 min before and after stress. Stress was induced by incubation for 10-15 min in a mouse restrainer.

mice [2] = assay: Impulsivity, Elevated Plus Maze; settings: age 13 weeks, postnatal CB2 agonist2 5 mg/kg
Description: The treatment consisted of a single intravenous administration of the vehicle or the M1 solution Impulsivity was tested 24 hours after treatment.
Impulsivity as measured by the paucity of time spent on the two anxiety-provoking, open arms (as opposed to the two enclosed arms) of an “Elevated Plus Maze” was used as a parameter of negative symptoms of schizophrenia (Josselyn and Vaccarino, 1998). The plus maze was elevated 50 cm above the table top. Behavior of each mouse was recorded for 5 minutes by a video camera and scored using the “EthoVision” software (Noldus), measuring the number of entries as well as the amount of time spent in each arm, open or closed. Reduced time spent in the closed arms indicated reduced anxiety. Increased time spent in the opened arms indicated increased risk behavior (hyperactive and impulsive).
The treatment consisted of a single i.p. administration of the vehicle or the M1 solution. The duration ratio open arm/close arm and the frequency ratio open arm/close arm in the Elevated Plus Maze were evaluated 24 hours after treatment with either vehicle or M1.

mice [3] = assay: Prepulse inhibition (PPI) of the startle reflex
Description: Attention Test: Prepulse Inhibition (PPI) of the Startle Reflex
A weak audible stimulus (74-90 dB tone) “prepulse” was used to inhibit the acoustic startle response to a subsequent strong audible stimulus (120 dB tone) “pulse”. Reduced prepulse inhibition of the startle reflex (PPI) was taken as an index of the positive symptoms of deficits in attention.
PPI was assessed similarly to the method described by Varty et al. (2001). Mice were placed in a startle chamber and allowed to acclimatize for 5 minutes A loudspeaker produced startling “pulse” at 120 dB and thereafter 65 dB background white noise or one of […] 20 ms duration “prepulses” at 74, 78, 82, 86, and 90 dB followed after 20 ms by a 40 ms startling “pulse” at 120 dB. The response of each mouse was recorded and stored by a computer. Each test session lasted for 11 minutes and consisted of 5 presentations of each of the prepulse/pulse sound stimuli (total of 30 or 35) presented in random order and separated by 15 second intervals. The magnitude of prepulse inhibition was calculated as percentage PPI=[1-(acoustic startle for prepulse+pulse)/(acoustic startle for pulse alone)]×100.

mice [4] = system: mice
Description: For the treated mice, one of the two CB2 receptor-selective agonist solutions: either CB2 agonist2 solution or H-308 solution, was administered by intravenous administration to mice pups to induce ADHD-like behavior and/or obsessive-compulsive-like behavior as a murine model for ADHD and OCD. […] In order to test the effect of non-agonist or mixed-type agonist/inverse agonist CB2 receptor ligands on hyperactivity, the effects of M1 were studied.
Open-Field Test (Crossing and Rearing, Defecation, Grooming)
Mice were assessed for hyperactive behavior on postnatal days 16-20, 26-39, at age 13 weeks and at age 23 weeks. Mice were placed in the center of a transparent glass cage 30×40×31 cm divided into squares of 7.5×7.5 cm. The number of squares crossed and the rearing activity were evaluated for 8 min.

mice [5] = assay: Motor tics in the open field test

Structure (SMILES): C=C1CC/C=C(\C)CC[C@@H]2[C@@H]1CC2(C)C [CB2 agonist2, beta-caryophyllene]
- number of vocal events (mice [1]; 20-40 KHz, day 29, female mice, CB2 agonist2 0.5 mg/kg at the age of 3-15 days, M1 5 mg/kg on day 29, FIG. 14A): increased
- duration of vocals (mice [1]; 20-40 KHz, day 29, female mice, CB2 agonist2 0.5 mg/kg at the age of 3-15 days, M1 5 mg/kg on day 29, FIG. 14B): increased
- number of vocal events (mice [1]; female mice 23-25 weeks, 20-40 KHz, stress, CB2 agonist2 5 mg/kg postnatal days 5-13, M1 given to model mice, FIG. 7A): increased
- total duration of vocal events (mice [1]; female mice 23-25 weeks, 20-40 KHz, stress, CB2 agonist2 5 mg/kg postnatal days 5-13, M1 given to model mice, FIG. 7B): increased
- mean duration of vocal events (mice [1]; female mice 23-25 weeks, 20-40 KHz, stress, CB2 agonist2 5 mg/kg postnatal days 5-13, M1 given to model mice, FIG. 7C): increased
- number of vocal events (mice [1]; female mice 23-25 weeks, 50-70 KHz, stress, CB2 agonist2 5 mg/kg postnatal days 5-13, M1 given to model mice, FIG. 8A): increased
- total duration of vocal events (mice [1]; female mice 23-25 weeks, 50-70 KHz, stress, CB2 agonist2 5 mg/kg postnatal days 5-13, M1 given to model mice, FIG. 8B): increased
- mean duration of vocal events (mice [1]; female mice 23-25 weeks, 50-70 KHz, stress, CB2 agonist2 5 mg/kg postnatal days 5-13, M1 given to model mice, FIG. 8C): increased
- total duration of vocal events (mice [1]; male mice 23-25 weeks, 20-40 KHz, before stress, CB2 agonist2 5 mg/kg postnatal days 5-13, M1 given to model mice, FIG. 9A): increased
- mean duration of vocal events (mice [1]; male mice 23-25 weeks, 20-40 KHz, before stress, CB2 agonist2 5 mg/kg postnatal days 5-13, M1 given to model mice, FIG. 9B): increased
- total duration of vocal events (mice [1]; male mice 23-25 weeks, 50-70 KHz, before stress, CB2 agonist2 5 mg/kg postnatal days 5-13, M1 given to model mice, FIG. 10A): increased
- mean duration of vocal events (mice [1]; male mice 23-25 weeks, 50-70 KHz, before stress, CB2 agonist2 5 mg/kg postnatal days 5-13, M1 given to model mice, FIG. 10B): increased
- ratio of duration in the open arm/close arm (mice [2]; females, FIG. 6A): increased
- ratio of duration in the open arm/close arm (mice [2]; males+females, FIG. 6B): increased
- percent pre-pulse inhibition (mice [3]; female mice treated with CB2 agonist2 at postnatal days 5-13, FIG. 3B): decreased
- acoustic startle (mice [3]; model mice vs control mice at the age of 8 weeks, FIG. 3A): not significantly different
- grooming (mice [4]; CB2 agonist2 0.5 mg/kg at the age of 3-15 days, M1 5 mg/kg on day 29, measured on day 39, stressed female mice, FIG. 13A): increased
- feces secretion (mice [4]; CB2 agonist2 0.5 mg/kg at the age of 3-15 days, M1 5 mg/kg on day 29, measured on day 39, stressed female mice, FIG. 13B): increased
- rearing (mice [4]; CB2 agonist2 0.5 mg/kg at the age of 3-15 days, M1 on day 29, measured on day 36, unstressed female mice, FIG. 12A): increased
- ambulation (mice [4]; CB2 agonist2 0.5 mg/kg at the age of 3-15 days, M1 on day 29, measured on day 39, stressed female mice, FIG. 12B): increased
- ambulation (mice [4]; CB2 agonist2 0.5 mg/kg at the age of 3-15 days, measured on day 26, unstressed females, FIG. 11A): increased
- rearing (mice [4]; CB2 agonist2 0.5 mg/kg at the age of 3-15 days, measured on day 26, unstressed females, FIG. 11C): increased
- ambulation (mice [4]; model mice 5 mg/kg CB2 agonist2 postnatal days 1-5, M1 5 mg/kg single i.p. at 13 weeks, 30 minutes after treatment, FIG. 5A): increase
- rearing (mice [4]; model mice 5 mg/kg CB2 agonist2 postnatal days 1-5, M1 5 mg/kg single i.p. at 13 weeks, 30 minutes after treatment, FIG. 5B): increase
- secretion of feces (mice [4]; model mice 5 mg/kg CB2 agonist2 postnatal days 5-13, M1 5 mg/kg single i.p. at 23 weeks, FIG. 4C): decreased
- grooming duration (mice [4]; model mice 5 mg/kg CB2 agonist2 postnatal days 5-13, M1 5 mg/kg single i.p. at 23 weeks, tested 48 hours after treatment, FIG. 4A): increased
- grooming frequency (mice [4]; model mice 5 mg/kg CB2 agonist2 postnatal days 5-13, M1 5 mg/kg single i.p. at 23 weeks, tested 48 hours after treatment, FIG. 4B): increased
- ambulation (mice [4]; open field test at postnatal days 16-19, 5 mg/kg CB2 agonist2 at postnatal days 5-13, FIG. 1A): increased
- rearing (mice [4]; open field test at postnatal days 16-19, 5 mg/kg CB2 agonist2 at postnatal days 5-13, FIG. 1B): increased
- ambulation (mice [4]; open field test at postnatal days 16-19, 10 mg/kg CB2 agonist2 at postnatal days 5-13, FIG. 1C): increased
- rearing (mice [4]; open field test at postnatal days 16-19, 10 mg/kg CB2 agonist2 at postnatal days 5-13, FIG. 1D): increased

Structure (SMILES): CCCCCCC(C)(C)c1cc(OC)c([C@@H]2C=C(CO)[C@@H]3C[C@H]2C3(C)C)c(OC)c1 [HU-308, [(1R,2R,5R)-2-[2,6-dimethoxy-4-(2-methyloctan-2-yl)phenyl]-7,7-dimethyl-4-bicyclo[3.1.1]hept-3-enyl]methanol]
- percent pre-pulse inhibition (mice [3]; female mice injected with HU-308 at postnatal days 5-13, FIG. 3D): decreased
- percent pre-pulse inhibition (mice [3]; male mice injected with HU-308 at postnatal days 5-13, FIG. 3C): decreased
- hyperactivity (mice [4]; age of 3 months, 0.1 mg/kg HU-308, M1 5 mg/kg in gavage 30 minutes before the experiment, FIGS. 17A-B): induced
- ambulation (mice [4]; open field test at postnatal days 16-19, 5 mg/kg HU-308 at postnatal days 5-13, FIG. 2A): increased
- rearing (mice [4]; open field test at postnatal days 16-19, 5 mg/kg HU-308 at postnatal days 5-13, FIG. 2B): increased
- abnormal motor tics/head twitches (mice [5]; HU-308 5 mg/kg during postnatal days 5-13, age of 12 weeks, open field test): induced
- Number of tics, Total (mice [5]; HU-308 5 mg/kg postnatal days 5-13, age 12 weeks, total over the recording): 18
